Assay results as given in US20230110378A1, “MONOBACTAM COMPOUND AND USE THEREOF” (EVOPOINT BIOSCIENCES CO., LTD., priority 2019, published 2023).
Values after ≈ are worked out from the molar mass of the structure shown.

Experiments:
[1] = system: Pseudomonas aeruginosa HDBPA 5679; assay: Minimum inhibitory concentration (broth microdilution, CLSI); assay type: cell-based; settings: HDBPA5679
Protocol: (§1) 103 bacterial strains used for the minimum inhibitory concentration test were frozen in a −80° C. ULT freezer and thawed 2 days before use. A small amount of frozen microorganism bacteria were scraped using a sterile inoculating loop, streaked onto a suitable solid culture dish for inoculation, and then cultured for about 20 h at 35 t 2° C. in a normal incubator. • Proteus mirabilis HDBPM 40: MA, normal atmospheric environment • The remaining 102 strains of bacteria: TSA, normal atmospheric environment
(§2) 5-10 colonies with similar morphology were picked from the culture dish using a sterile inoculating loop and then re-streaked onto a corresponding solid culture dish. Then the dish was incubated in a normal incubator at 35 t 2° C. for about 20 h.
(§3) 5-10 single microbial colonies were picked from the solid culture dish, resuspended in 500 μL of sterile normal saline (0.9% NaCl), and adjusted to an OD600 of about 0.15 with a spectrophotometer.
(§4) The bacteria were then diluted 300-fold with 1.02×CAMHB to an inoculation concentration of 2×10^5 CFU/mL.
(§5) • There were a total of 3 assay plate patterns, one of which was used for each assay. • 8 rows of the assay plate (rows A-H) were for 8 test compounds, respectively. The highest test concentration of the compounds was 16, 32 or 64 μg/mL, and each compound was diluted 2-fold. • Growth control (GC): a medium containing microbial inoculum (1.02×CAMHB) and dimethylsulfoxide (DMSO) but no compound.
(§6) The test and reference compounds were dissolved in DMSO or H2O to prepare 6.4 mg/mL stock solutions. The stock solutions were diluted to prepare standby solutions with certain concentrations, and the volumes of the standby solutions were determined according to the experimental design. Corresponding volumes of the standby solutions were transferred to the starting wells of a dilution plate (A1-H1), and half the starting-well volume of DMSO to the other wells. Each compound was diluted 2-fold sequentially from column 1 to column 11 (e.g., transferring 30 μL of DMSO to columns 2-12 first, then pipetting 30 μL of the compounds from column 1 to column 2 and mixing them well, then pipetting 30 μL of the compounds from column 2 to column 3 and mixing them well, then pipetting 30 μL of the compounds from column 3 to column 4 and mixing them well, and so on to column 11).
(§7) 1 or 2 μL of the compounds and DMSO were transferred from the compound plate to corresponding wells of the assay plates.
(§8) 98 μL of corresponding bacterial inocula were added to the assay plates.
(§9) After addition, the assay plates were covered with sterile covers. The mixtures in the assay plates were centrifuged in a centrifuge at 800 rpm for 30 s, mixed well on a microplate shaker at 400 rpm for 1 min, and incubated in a normal incubator at 35 t 2° C. for 20-24 h.
(§10) The assay plates were placed on a plate reading device, and the speculum was adjusted to observe and record the growth condition of bacteria in each well. In the mean time, each assay plate was photographed with QCount system.
(§11) The minimum inhibitory concentration of each compound was recorded by reference to guidelines from the Clinical and Laboratory Standards Institute.
(§12) The minimum inhibitory concentrations of the compounds against experimental strains were tested in this study by reference to the medium microdilution method as indicated by the Clinical and Laboratory Standards Institute. Compounds were diluted two-fold in 96-well plates from the highest detection concentration of 16, 32 or 64 μg/mL. The bacterial inocula in the assay plates were thawed from corresponding medium plates and diluted in 1.02×CAMHB, while growth controls (GC wells) were set up in the assay plates. The minimum inhibitory concentration of each compound against different bacteria was observed and recorded after the assay plates were incubated in a normal incubator at 35 t 2° C. for about 20 h. The minimum inhibitory concentration values for the different compounds are listed in the list below.

[2] = system: Enterobacter cloacae HDBECL 30030; assay: as above; assay type: cell-based; settings: HDBECL30030
Protocol: as §1, §2, §3, §4, §5, §6, §7, §8, §9, §10, §11, §12

[3] = system: Klebsiella pneumoniae HDBKP 30006; assay: as above; assay type: cell-based; settings: HDBKP30006
Protocol: as §1, §2, §3, §4, §5, §6, §7, §8, §9, §10, §11, §12

[4] = system: Klebsiella pneumoniae HDBKP 9153; assay: as above; assay type: cell-based; settings: HDBKP9153
Protocol: as §1, §2, §3, §4, §5, §6, §7, §8, §9, §10, §11, §12

[5] = system: Klebsiella pneumoniae HDBKP 9249; assay: as above; assay type: cell-based; settings: HDBKP9249
Protocol: as §1, §2, §3, §4, §5, §6, §7, §8, §9, §10, §11, §12

[6] = system: Escherichia coli HDBEC 30016; assay: as above; assay type: cell-based; settings: HDBEC30016
Protocol: as §1, §2, §3, §4, §5, §6, §7, §8, §9, §10, §11, §12

[7] = system: Escherichia coli HDBEC 30048; assay: as above; assay type: cell-based; settings: HDBEC30048
Protocol: as §1, §2, §3, §4, §5, §6, §7, §8, §9, §10, §11, §12

[8] = system: Escherichia coli HDBEC 30008; assay: as above; assay type: cell-based; settings: HDBEC30008
Protocol: as §1, §2, §3, §4, §5, §6, §7, §8, §9, §10, §11, §12

[9] = system: Proteus mirabilis HDBPM 40; assay: as above; assay type: cell-based; settings: HDBPM40
Protocol: as §1, §2, §3, §4, §5, §6, §7, §8, §9, §10, §11, §12

[10] = system: metallo-β-lactamase-expressing Acinetobacter baumannii strain ABA-0003YK; assay: as above; assay type: cell-based; settings: read-out: MIC A. baumannii ABA-0003YK
Protocol: as §1, §2, §3, §4, §5, §6, §7, §8, §9, §10, §11, §12

[11] = Pharmacokinetic evaluation of compounds in mice (tail vein injection); assay type: in vivo, Male CD-1 (ICR) mice; settings: CD-1 (ICR), mouse, male CD-1 mice, intravenous injection, dose 10 mg/kg, plasma
Protocol: Male CD-1 (ICR) mice were purchased and then acclimatized in this laboratory for at least 3 days. […] Blood samples were collected from the saphenous vein at 0.0833 h, 0.25 h, 0.5 h, 1 h, 2 h, 4 h, 8 h and 24 h following the tail vein injection administration. The volume of blood collection at each time point of the blood collection was about 30 μL. The blood samples were placed in centrifuge tubes containing anticoagulant EDTA-K2 and centrifuged at 3,200 g at 4° C. for 10 min, and then the upper plasma samples were collected and preserved in a freezer at −70±10° C. for later tests.
1) To 1.5 mL centrifuge tubes were added a 6 μL aliquot of an unknown sample, a standard curve, a quality control, a dilution quality control, single blank and double blank samples.
2) Each sample (except for the double blank sample) was treated with 120 μL of IS1-containing precipitant (the double blank sample was treated with 120 μL of pure MeOH for precipitation), and the mixtures were well mixed (for at least 15 s) using a vortexer and centrifuged at 12,000 g at 4° C. for 15 min.
3) 60 μL of the supernatants were transferred to a 96-well plate and centrifuged at 4° C. at 3220 g for 5 min, and 6 p L of the supernatants were injected for LC-MS/MS quantitative analysis.
1) The 1 h-plasma samples from the 3 mice were diluted 10-fold: 2 p L of the samples were added to 18 p L of blank matrix.
2) The 0.0833 h to 0.5 h-plasma samples from the 3 mice were diluted 100-fold: 18 μL of blank matrix was added to 2 p L of the samples to obtain 10-fold diluted samples. 2 μL of the 10-fold diluted samples were added to 18 p L of blank matrix to obtain 100-fold diluted analysis samples.
LC-MS/MS analysis conditions: chromatography column: ACQUITY UPLC HSS T3 (2.1×50 mm, 1.8 μm); column temperature: 50° C.; mobile phase A: a 0.1% aqueous solution of formic acid; mobile phase B: a 0.1% solution of formic acid in acetonitrile; flowrate: 0.65 mL/min. Internal standard: verapamil (100 ng/mL)
The concentration of the compounds in plasma was measured by LC-MS/MS (LC-MS/MS-AK_Q-Trap 6500). The pharmacokinetic software WinNonlin [version: Phoenix™ WinNonlin®6.3, manufacturer: Pharsight Corporation] was used to calculate pharmacokinetic parameters (V-Noncompartmental model 201).

CC(C)(O/N=C(\C(=O)N[C@@H]1C(=O)N(S(=O)(=O)O)[C@@H]1CNC(=O)c1cc([C@@H]2CCN(C(=O)c3ccc(O)c(O)c3Cl)C2)no1)c1csc(N)n1)C(=O)O [Compound I-27] showed an MIC [1] of less than 4 µg/mL, an MIC [2] of less than 4 µg/mL and an MIC [3] of 4 to 8 µg/mL (≈ 5.09 to 10.2 µM). It also gave an MIC [4] of less than 4 µg/mL, an MIC [5] of 4 to 8 µg/mL (≈ 5.09 to 10.2 µM) and an MIC [6] of less than 4 µg/mL. The MIC [7] was less than 4 µg/mL, the MIC [8] was less than 4 µg/mL and the MIC [9] was less than 4 µg/mL. It also gave an MIC [10] of less than 4 µg/mL.

In the case of C[n+]1cc(-c2ncc(C(=O)NC[C@@H]3[C@H](NC(=O)/C(=N\OC(C)(C)C(=O)O)c4csc(N)n4)C(=O)N3S(=O)(=O)O)s2)cn1CCCNC(=O)c1ccc(O)c(O)c1Cl [Compound I-33], the MIC [1] is reported as less than 4 µg/mL, the MIC [2] is reported as less than 4 µg/mL and the MIC [3] is reported as 8 to 16 µg/mL. The MIC [4] was less than 4 µg/mL, the MIC [5] was 4 to 8 µg/mL and the MIC [6] was less than 4 µg/mL. It also gave an MIC [7] of less than 4 µg/mL, an MIC [8] of less than 4 µg/mL and an MIC [9] of less than 4 µg/mL. For the same compound, the MIC [10] was less than 4 µg/mL.

Cc1c(O)c(=O)cc(C(=O)N2CC[C@@H](c3cc(C(=O)NC[C@@H]4[C@H](NC(=O)/C(=N\OC(C)(C)C(=O)O)c5csc(N)n5)C(=O)N4S(=O)(=O)O)on3)C2)n1O [Compound I-43] gave an AUC [11] of 9660 ng·h/mL, a clearance [11] of 17.3 mL/min/kg and a half-life ([11]; read-out: T½ (converted)) of 35.4 min. It also gave a Vd ([11]; read-out: Vss) of 0.24 L/kg, an MIC [1] of less than 4 µg/mL and an MIC [2] of less than 4 µg/mL. It also gave an MIC [3] of 8 to 16 µg/mL (≈ 10.2 to 20.5 µM), an MIC [4] of less than 4 µg/mL and an MIC [5] of 8 to 16 µg/mL (≈ 10.2 to 20.5 µM). For the same compound, the MIC [6] was less than 4 µg/mL, the MIC [7] was less than 4 µg/mL and the MIC [8] was less than 4 µg/mL. It also gave an MIC [9] of less than 4 µg/mL.

C[n+]1cc(-c2ncc(C(=O)NC[C@@H]3[C@H](NC(=O)/C(=N\OC4(C(=O)O)CC4)c4csc(N)n4)C(=O)N3S(=O)(=O)O)s2)cn1CCCNC(=O)c1ccc(O)c(O)c1Cl [Compound I-28] gave an MIC [1] of less than 4 µg/mL, an MIC [2] of less than 4 µg/mL and an MIC [3] of 4 to 8 µg/mL. For the same compound, the MIC [4] was less than 4 µg/mL, the MIC [5] was less than 4 µg/mL and the MIC [6] was less than 4 µg/mL. For the same compound, the MIC [7] was less than 4 µg/mL, the MIC [8] was less than 4 µg/mL and the MIC [9] was less than 4 µg/mL. For the same compound, the MIC [10] was less than 4 µg/mL.

Compound CC(C)(O/N=C(\C(=O)N[C@@H]1C(=O)N(S(=O)(=O)O)[C@@H]1CNC(=O)c1cc(C2CC[N+](C)(CCNC(=O)c3ccc(O)c(O)c3Cl)C2)no1)c1csc(N)n1)C(=O)O (some centres unmarked) [Compound I-32] has an MIC [1] of less than 4 µg/mL, an MIC [2] of less than 4 µg/mL and an MIC [3] of 8 to 16 µg/mL. It also gave an MIC [4] of less than 4 µg/mL, an MIC [5] of less than 4 µg/mL and an MIC [6] of 4 to 8 µg/mL. It also gave an MIC [7] of less than 4 µg/mL, an MIC [8] of less than 4 µg/mL and an MIC [9] of less than 4 µg/mL. The MIC [10] was less than 4 µg/mL.
